Experiments:
Assay in all cases: relative viability (nuclei count vs DMSO), 5 days (fraction); higher = more cells survive
Shikonin + Lapatinib = compound: CC(C)=CC[C@@H](O)C1=CC(=O)c2c(O)ccc(O)c2C1=O [Shikonin] + CS(=O)(=O)CCNCc1ccc(-c2ccc3ncnc(Nc4ccc(OCc5cccc(F)c5)c(Cl)c4)c3c2)o1 [Lapatinib] (partner 2 µM)
Outline: (§1)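 Lung cancer cell lines were seeded in 1536-well plates and dosed by pin tool the next day, with either a single drug or a fixed anchor-drug dose combined with five library-drug doses (not always all listed) spaced in √10 steps. Five days later, one step fixed the cells and stained their nuclei (final 0.05% Triton X-100, 1% formaldehyde, 1 ug/ml Hoechst), and nuclei were counted on 4× images. Relative viability is the nuclei count in treated wells divided by the count in vehicle wells, and each value is the median of duplicate plates.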

Shikonin + Navitoclax = compound: CC(C)=CC[C@@H](O)C1=CC(=O)c2c(O)ccc(O)c2C1=O [Shikonin] + CC1(C)CCC(c2ccc(Cl)cc2)=C(CN2CCN(c3ccc(C(=O)NS(=O)(=O)c4ccc(N[C@H](CCN5CCOCC5)CSc5ccccc5)c(S(=O)(=O)C(F)(F)F)c4)cc3)CC2)C1 [Navitoclax] (partner 0.5 µM)
Outline: as §1

[1] = compound: CC(C)N(CCCNC(=O)Nc1ccc(C(C)(C)C)cc1)C[C@H]1O[C@@H](n2ccc3c(N)ncnc32)[C@H](O)[C@@H]1O + CCNC(=O)c1noc(-c2cc(C(C)C)c(O)cc2O)c1-c1ccc(CN2CCOCC2)cc1 [Luminespib] (partner 0.01 µM)
Outline: as §1

[2] = compound: CC(C)N(CCCNC(=O)Nc1ccc(C(C)(C)C)cc1)C[C@H]1O[C@@H](n2ccc3c(N)ncnc32)[C@H](O)[C@@H]1O + Cc1nc(Nc2ncc(C(=O)Nc3c(C)cccc3Cl)s2)cc(N2CCN(CCO)CC2)n1 [Dasatinib] (partner 0.075 µM)
Outline: as §1

Cell Line	relative viability (Shikonin + Lapatinib; first compound 0.01 µM)	relative viability (Shikonin + Lapatinib; first compound 0.1 µM)	relative viability (Shikonin + Lapatinib; first compound 0.3162 µM)	relative viability (Shikonin + Lapatinib; first compound 1 µM)	relative viability (Shikonin + Navitoclax; first compound 0.01 µM)	relative viability (Shikonin + Navitoclax; first compound 0.1 µM)	relative viability (Shikonin + Navitoclax; first compound 0.3162 µM)	relative viability (Shikonin + Navitoclax; first compound 1 µM)	relative viability ([1]; first compound 0.08 µM)	relative viability ([1]; first compound 0.253 µM)	relative viability ([1]; first compound 2.53 µM)	relative viability ([1]; first compound 8 µM)	relative viability ([2]; first compound 0.08 µM)	relative viability ([2]; first compound 0.253 µM)	relative viability ([2]; first compound 0.8 µM)	relative viability ([2]; first compound 2.53 µM)	relative viability ([2]; first compound 8 µM)	relative viability ([1]; first compound 0.8 µM)
NCI-H1975	0.871	1.17	0.859	0.896	1.16	1.37	1.33	0.91	0.214	0.154	0.213	0.192	0.382	0.337	0.241	0.341	0.288	–
CAL-12T	0.636	0.632	0.649	0.638	1.29	1.3	1.32	1.22	0.733	0.365	0.465	0.423	0.405	0.398	0.386	0.453	0.402	0.512
NCI-H1623	–	–	–	–	–	–	–	–	0.495	0.472	0.589	0.547	0.562	0.563	0.571	0.537	0.521	0.394
HCC-44	1.07	1.07	1.05	1.09	1.04	0.909	1.1	1.07	0.972	1.06	1.15	1.03	–	–	–	–	–	1.1
EKVX	0.18	0.202	0.214	0.19	0.828	0.897	1.21	0.903	0.758	0.847	0.909	0.846	0.571	0.502	0.509	0.517	0.524	0.838
NCI-H1651	0.714	0.925	0.919	0.844	1.03	0.98	1.01	1.06	0.805	0.903	0.765	0.722	0.317	0.373	0.291	0.386	0.517	0.785
NCI-H1944	0.89	0.894	0.789	0.933	0.988	1.1	1.08	1.14	0.716	0.683	0.709	0.766	0.197	0.197	0.257	0.243	0.222	0.819
NCI-H1703	1.15	1.33	1.15	0.647	1.12	1.08	0.991	0.19	–	–	–	–	–	–	–	–	–	–
Calu-6	1.16	1.34	1.11	1.16	1.1	1.11	0.981	0.448	–	–	–	–	–	–	–	–	–	–
EBC-1	0.19	0.191	0.213	0.217	0.366	0.392	0.352	0.254	–	–	–	–	–	–	–	–	–	–
NCI-H1993	–	0.806	0.711	0.921	–	0.814	0.936	1.01	0.707	–	0.927	0.84	0.476	–	–	0.768	0.718	–
A-427	1.05	1.37	0.967	1.14	0.931	1.14	0.99	0.983	0.889	0.875	0.884	0.817	0.671	0.644	0.641	0.61	0.594	1.03
NCI-H2405	1.13	1.28	1.11	1.16	0.962	0.922	1.16	0.837	0.691	0.61	0.78	0.74	0.193	0.199	0.242	0.2	0.241	0.722
NCI-H1355	1.07	1.05	1.07	1.05	0.81	0.939	0.995	0.983	0.763	0.614	0.609	0.665	0.71	0.548	0.379	0.698	0.668	0.679
NCI-H358	0.374	0.53	0.412	0.391	–	–	–	–	0.441	0.235	0.0174	0.307	0.172	0.158	0.171	0.174	0.165	0.384
SK-LU-1	1.07	0.869	0.724	0.786	0.966	0.972	1.08	0.589	0.193	0.202	0.252	0.191	0.18	0.184	0.19	0.184	0.207	0.182
NCI-H23	1.2	1.14	1.13	1.03	0.821	0.748	0.935	0.781	0.224	0.23	0.233	0.21	0.685	0.645	0.716	0.798	0.725	0.199
HOP-62	1.04	1.13	0.908	1.03	1.05	1.15	1.01	1.04	0.94	0.928	0.863	0.9	0.629	0.615	0.54	0.577	0.604	0.817

— the supplement of paper PMC10307832
